The values that follow come from patent US20100022491A1, “4-HYDROXY-2-OXO-2,3-DIHYDRO-1,3-BENZOTHIAZOL-7YL COMPOUNDS FOR MODULATION OF B2-ADRENORECEPTOR ACTIVITY” (ASTRAZENECA AB, priority 2006, published 2010).

In assay [1] the target is T1, recombinant human adrenergic beta 1 receptors (Homo sapiens, UniProt P08588).
T1 construct: purchased Euroscreen
Put plainly: Adrenergic β1 selectivity binding assay ([125I]-Iodocyanopindolol). The conditions noted are these: inhibition of [125I]-Iodocyanopindolol (0.036 nM) binding; read-out: β1 bind p IC50 (converted). As to the method: Membranes containing recombinant human adrenergic beta 1 receptors were obtained from Euroscreen. These were diluted in Assay Buffer (50 mM HEPES, 1 mM EDTA, 120 mM NaCl, 0.1% gelatin, pH 7.4) to provide a final concentration of membranes that gave a clear window between maximum and minimum specific binding.
Assays were performed in U-bottomed 96-well polypropylene plates. 10 μL [^125I]-Iodocyanopindolol (0.036 nM final concentration) and 10 μL of test compound (10× final concentration) were added to each test well. For each assay plate 8 replicates were obtained for [^125I]-Iodocyanopindolol binding in the presence of 10 μL vehicle (10% (v/v) DMSO in Assay Buffer; defining maximum binding) or 10 μL Propranolol (10 μM final concentration; defining non-specific binding (NSB)). Membranes were then added to achieve a final volume of 100 μL. The plates were incubated for 2 hours at room temperature and then filtered onto PEI coated GF/B filter plates, pre-soaked for 1 hour in Assay Buffer, using a 96-well plate Tomtec cell harvester. Five washes with 250 μL wash buffer (50 mM HEPES, 1 mM EDTA, 120 mM NaCl, pH 7.4) were performed at 4° C. to remove unbound radioactivity. The plates were dried then sealed from underneath using Packard plate sealers and MicroScint-O (50 μL) was added to each well. The plates were sealed (TopSeal A) and filter-bound radioactivity was measured with a scintillation counter (TopCount, Packard BioScience) using a 3-minute counting protocol.
Total specific binding (B0) was determined by subtracting the mean NSB from the mean maximum binding. NSB values were also subtracted from values from all other wells. […] Data was fitted to a four parameter logistic equation to determine the compound potency, which was expressed as pIC50 (negative log molar concentration inducing 50% inhibition of [^125I]-Iodocyanopindolol binding).

A further assay concerns the target T2, Adrenergic β2 (Homo sapiens, UniProt P07550).
T2 construct: Adherent H292 cells were removed from tissue culture flasks; endogenous in cells; host or cells: H292 cells
Description: Adrenergic β2 mediated cAMP production in H292 cells. As to conditions: for EC50: H292 cells, cAMP by AlphaScreen, 60 minutes at room temperature, rolipram 300 μM, read-out: β2 pEC50 (converted); for β2 Int Act: Intrinsic Activity as a fraction relative to the maximum activity determined for formoterol. It counts as cell-based. A digest of the protocol:
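H292 cells pretreated 10 min with rolipram (300 μM final), then exposed to agonist 60 min at room temperature in HEPES-buffered HBSS, 1.6% DMSO final. Lysate cAMP quantified by AlphaScreen against a cAMP standard curve; four-parameter fit gives pEC50 and intrinsic activity relative to formoterol maximum.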

The target of assay [2] is T3, recombinant human Dopamine Subtype D2s receptors (Homo sapiens, UniProt P14416).
T3 construct: purchased Perkin Elmer
T3 sequence (P14416 1-414 isoform P14416-2): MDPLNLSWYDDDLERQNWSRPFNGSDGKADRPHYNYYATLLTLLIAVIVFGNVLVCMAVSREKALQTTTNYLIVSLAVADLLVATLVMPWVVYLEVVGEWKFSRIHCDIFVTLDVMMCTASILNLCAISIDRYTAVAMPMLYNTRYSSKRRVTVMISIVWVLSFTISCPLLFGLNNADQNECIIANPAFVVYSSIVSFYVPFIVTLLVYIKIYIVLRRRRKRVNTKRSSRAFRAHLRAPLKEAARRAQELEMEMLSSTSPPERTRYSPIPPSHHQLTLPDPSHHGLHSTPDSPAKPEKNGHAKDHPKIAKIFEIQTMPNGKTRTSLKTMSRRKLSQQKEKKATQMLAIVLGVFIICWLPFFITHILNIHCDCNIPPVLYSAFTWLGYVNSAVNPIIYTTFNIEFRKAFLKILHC
Put plainly: Dopamine D2 selectivity binding assay ([3H]-spiperone). As to conditions: inhibition of [3H]-spiperone (0.16 nM) binding; read-out: D2 bind pIC50 (converted). The procedure, abridged:
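Recombinant human D2s membranes incubated 2 h at room temperature with 0.16 nM [3H]-spiperone in HEPES/EDTA/NaCl/gelatin buffer, pH 7.4; 10 μM haloperidol defined non-specific binding. Filter-bound radioactivity counted after cold washes. pIC50 from 4-parameter logistic fit of NSB-corrected specific binding.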

Where a name gives a salt, the structure may show the parent alone.

T2 sequence (P07550 whole entry): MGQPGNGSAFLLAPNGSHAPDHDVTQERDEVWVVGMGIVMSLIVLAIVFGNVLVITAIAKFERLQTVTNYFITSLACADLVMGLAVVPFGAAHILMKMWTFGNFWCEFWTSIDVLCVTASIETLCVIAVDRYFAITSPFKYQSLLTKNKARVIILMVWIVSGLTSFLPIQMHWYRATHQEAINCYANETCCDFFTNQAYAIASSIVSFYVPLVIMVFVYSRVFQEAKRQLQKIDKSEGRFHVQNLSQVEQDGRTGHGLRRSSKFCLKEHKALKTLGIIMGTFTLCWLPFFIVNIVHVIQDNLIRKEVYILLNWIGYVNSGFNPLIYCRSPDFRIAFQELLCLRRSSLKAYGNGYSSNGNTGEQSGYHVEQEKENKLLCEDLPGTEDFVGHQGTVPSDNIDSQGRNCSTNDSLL
T1 sequence (P08588 whole entry): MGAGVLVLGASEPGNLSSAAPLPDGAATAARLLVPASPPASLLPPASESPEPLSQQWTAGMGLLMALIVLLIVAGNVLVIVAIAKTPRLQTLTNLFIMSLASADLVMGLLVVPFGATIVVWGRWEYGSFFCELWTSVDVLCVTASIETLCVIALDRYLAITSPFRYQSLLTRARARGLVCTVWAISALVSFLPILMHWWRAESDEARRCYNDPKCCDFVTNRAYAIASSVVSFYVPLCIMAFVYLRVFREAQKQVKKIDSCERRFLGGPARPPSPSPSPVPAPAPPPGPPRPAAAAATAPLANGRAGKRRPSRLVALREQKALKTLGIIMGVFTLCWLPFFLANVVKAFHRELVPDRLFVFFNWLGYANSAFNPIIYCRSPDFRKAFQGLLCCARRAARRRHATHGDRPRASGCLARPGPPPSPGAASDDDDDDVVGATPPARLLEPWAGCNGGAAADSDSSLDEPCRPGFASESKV

With `O=C(CCNCCc1ccc(F)cc1)N(CCNCCc1ccc(O)c2[nH]c(=O)sc12)C1CCCCC1` [Example 16, N-Cyclohexyl-N^3-[2-(4-fluorophenyl)ethyl]-N-(2-{[2-(4-hydroxy-2-oxo-2,3-dihydro-1,3-benzothiazol-7-yl)ethyl]amino}ethyl)-β-alaninamide bis-trifluoroacetic acid salt], the IC50 in assay [1] is 7940 nM. Further, at Adrenergic β2, the EC50 was 3.98 nM and the “β2 Int Act” value was determined as 0.91. Further, the IC50 in assay [2] was 631 nM.
Consider `O=C(CCNCCc1ccccc1Cl)N(CCNCCc1ccc(O)c2[nH]c(=O)sc12)C1CCCCC1` [Example 17, N^3-[2-(2-Chlorophenyl)ethyl]-N-cyclohexyl-N-(2-{[2-(4-hydroxy-2-oxo-2,3-dihydro-1,3-benzothiazol-7-yl)ethyl]amino}ethyl)-β-alaninamide bis-trifluoroacetic salt], for which, in assay [1], the IC50 was 3160 nM. Moreover, at Adrenergic β2, the EC50 was 1.58 nM and the “β2 Int Act” value is given as 0.90. Also, the IC50 in assay [2] is 158 nM.
Take `O=C(CCNCCc1cccc(Cl)c1)N(CCNCCc1ccc(O)c2[nH]c(=O)sc12)C1CCOCC1` [Example 22, N^3-[2-(3-Chlorophenyl)ethyl]-N-(2-{[2-(4-hydroxy-2-oxo-2,3-dihydro-1,3-benzothiazol-7-yl)ethyl]amino}ethyl)-N-(tetrahydro-2H-pyran-4-yl)-β-alaninamide bis-trifluoroacetic acid salt]: the IC50 in assay [1] is 3980 nM; in assay [2] it was 7940 nM. Besides, the EC50 at Adrenergic β2 was 2.51 nM. At Adrenergic β2, the “β2 Int Act” value came out at 0.96.
For `O=C(CCNCCc1ccccc1)N(CCNCCc1ccc(O)c2[nH]c(=O)sc12)C1CCCCCC1` [Example 23, N-Cycloheptyl-N-(2-{[2-(4-hydroxy-2-oxo-2,3-dihydro-1,3-benzothiazol-7-yl)ethyl]amino}ethyl)-N^3-(2-phenylethyl)-β-alaninamide bis-trifluoroacetic acid salt], in assay [1], the IC50 is 3980 nM. For the same compound, on Adrenergic β2, the EC50 was 1 nM and the “β2 Int Act” value is 0.85. In addition, the IC50 in assay [2] was 251 nM.
Taken in the same sequence, the figures for `O=C(CCNCCc1ccc(Cl)c(Cl)c1)N(CCNCCc1ccc(O)c2[nH]c(=O)sc12)C1CCOCC1` [Example 24, N^3-[2-(3,4-Dichlorophenyl)ethyl]-N-(2-{[2-(4-hydroxy-2-oxo-2,3-dihydro-1,3-benzothiazol-7-yl)ethyl]amino}ethyl)-N-(tetrahydro-2H-pyran-4-yl)-β-alaninamide bis-trifluoroacetic acid salt] were 2000 nM, 7.94 nM, 0.77 and 794 nM.
Consider `Cc1cccc(CCNCCC(=O)N(CCNCCc2ccc(O)c3[nH]c(=O)sc23)C2CCOCC2)c1` [Example 25, N-(2-{[2-(4-Hydroxy-2-oxo-2,3-dihydro-1,3-benzothiazol-7-yl)ethyl]amino}ethyl)-N^3-[2-(3-methylphenyl)ethyl]-N-(tetrahydro-2H-pyran-4-yl)-β-alaninamide bis-trifluoroacetic acid salt], for which the IC50 in assay [1] is 5010 nM. For the same compound, at Adrenergic β2, the EC50 is 7.94 nM and the “β2 Int Act” value came to 1.05. Besides, in assay [2], the IC50 was 2510 nM.
For the compound `O=C(CCNCCc1ccc(Cl)cc1)N(CCNCCc1ccc(O)c2[nH]c(=O)sc12)C1CCOCC1` [Example 26, N^3-[2-(4-Chlorophenyl)ethyl]-N-(2-{[2-(4-hydroxy-2-oxo-2,3-dihydro-1,3-benzothiazol-7-yl)ethyl]amino}ethyl)-N-(tetrahydro-2H-pyran-4-yl)-β-alaninamide bis-trifluoroacetic acid salt], the IC50 in assay [1] was 5010 nM. Besides, on Adrenergic β2, the EC50 was 7.94 nM and the “β2 Int Act” value was 0.83. In addition, in assay [2], the IC50 is 1000 nM.
The matching figures for `Cc1ccccc1CCNCCC(=O)N(CCNCCc1ccc(O)c2[nH]c(=O)sc12)C1CCOCC1` [Example 27, N-(2-{[2-(4-Hydroxy-2-oxo-2,3-dihydro-1,3-benzothiazol-7-yl)ethyl]amino}ethyl)-N^3-[2-(2-methylphenyl)ethyl]-N-(tetrahydro-2H-pyran-4-yl)-β-alaninamide bis-trifluoroacetic acid salt]: 5010 nM, 10 nM, 0.95 and 3160 nM.
For the compound `O=C(CCNCCc1ccc(Cl)cc1)N(CCNCCc1ccc(O)c2[nH]c(=O)sc12)C1CCCC1` [Example 28, N^3-[2-(4-Chlorophenyl)ethyl]-N-cyclopentyl-N-(2-{[2-(4-hydroxy-2-oxo-2,3-dihydro-1,3-benzothiazol-7-yl)ethyl]amino}ethyl)-β-alaninamide bis-trifluoroacetic acid salt], in assay [1], the IC50 is 6310 nM. In addition, at Adrenergic β2, the EC50 was 10 nM and the “β2 Int Act” value was 0.87. Moreover, the IC50 in assay [2] was 398 nM.
Regarding `O=C(CCNCCc1ccccc1Cl)N(CCNCCc1ccc(O)c2[nH]c(=O)sc12)C1CCCC1` [Example 29, N^3-[2-(2-Chlorophenyl)ethyl]-N-cyclopentyl-N-(2-{[2-(4-hydroxy-2-oxo-2,3-dihydro-1,3-benzothiazol-7-yl)ethyl]amino}ethyl)-β-alaninamide bis-trifluoroacetic acid salt], the IC50 in assay [1] was 3160 nM. Also, on Adrenergic β2, the EC50 is 3.98 nM and the “β2 Int Act” value is 0.97. The IC50 in assay [2] is 251 nM.
Consider `O=C(CCNCCc1cccc(Cl)c1)N(CCNCCc1ccc(O)c2[nH]c(=O)sc12)C1CCCC1` [Example 30, N^3-[2-(3-Chlorophenyl)ethyl]-N-cyclopentyl-N-(2-{[2-(4-hydroxy-2-oxo-2,3-dihydro-1,3-benzothiazol-7-yl)ethyl]amino}ethyl)-β-alaninamide bis-trifluoroacetic acid salt], for which, in assay [1], the IC50 is 3160 nM. On Adrenergic β2, the EC50 is 5.01 nM and the “β2 Int Act” value came out at 0.96. Further, the IC50 in assay [2] is 316 nM.
`C[C@H](CNCCC(=O)N(CCNCCc1ccc(O)c2[nH]c(=O)sc12)C1CCCC1)c1ccccc1` [Example 31, N-cyclopentyl-N-(2-{[2-(4-hydroxy-2-oxo-2,3-dihydro-1,3-benzothiazol-7-yl)ethyl]amino}ethyl)-N^3-[(2S)-2-phenylpropyl]-β-alaninamide bis-trifluoroacetic acid salt]: in assay [1], the IC50 is 6310 nM. At Adrenergic β2, the EC50 is 10 nM and the “β2 Int Act” value came out at 0.92. In assay [2], the IC50 is 251 nM.
Taken in the same sequence, the figures for `CC(C)(CNCCC(=O)N(CCNCCc1ccc(O)c2[nH]c(=O)sc12)C1CCCC1)c1ccccc1` [Example 32, N-cyclopentyl-N-(2-{[2-(4-hydroxy-2-oxo-2,3-dihydro-1,3-benzothiazol-7-yl)ethyl]amino}ethyl)-N^3-(2-methyl-2-phenylpropyl)-β-alaninamide bis-trifluoroacetic acid salt] were 7940 nM, 79.4 nM, 0.67 and 398 nM.
With `O=C(CCNCCc1ccc(O)cc1)N(CCNCCc1ccc(O)c2[nH]c(=O)sc12)C1CCCCC1` [Example 34, N-Cyclohexyl-N-(2-{[2-(4-hydroxy-2-oxo-2,3-dihydro-1,3-benzothiazol-7-yl)ethyl]amino}ethyl)-N^3-[2-(4-hydroxyphenyl)ethyl]-β-alaninamide bis-trifluoroacetic acid salt], the IC50 in assay [1] is 7940 nM; in assay [2], 398 nM. Also, the EC50 at Adrenergic β2 is 2 nM. Besides, the “β2 Int Act” value at Adrenergic β2 is on record as 0.75.
On to `O=C(CCNCCc1cccs1)N(CCNCCc1ccc(O)c2[nH]c(=O)sc12)C1CCCCC1` [Example 35, N-Cyclohexyl-N-(2-{[2-(4-hydroxy-2-oxo-2,3-dihydro-1,3-benzothiazol-7-yl)ethyl]amino}ethyl)-N^3-[2-(2-thienyl)ethyl]-β-alaninamide bis-trifluoroacetic acid salt], for which the IC50 in assay [1] is 3980 nM; in assay [2], 316 nM. Further, at Adrenergic β2, the EC50 was 3.98 nM. In addition, the “β2 Int Act” value on Adrenergic β2 is 0.91.
